Values after ≈ are worked out from the molar mass of the structure shown. One block for each compound: values may come before it.
Legend:
Nox2 [1] = target: T1, Nox2 (Homo sapiens (Human), UniProt P04839); experiment: Nox2 activity assay for primary screening (cell free, human neutrophil plasma membranes, LO12 luminescence); type: biochemical
Experimental: Nox2 activity assay for primary screening: Plasma membranes were prepared from human neutrophils, which express large amounts of Nox2, stored at −80 C until use. See Curnutte et al., J. Biol. Chem. 1987, 262, 6450-6452, hereby incorporated by reference. Membranes are mixed with recombinant, purified cytosolic regulatory proteins (p67Np47N chimera, and a constitutively active mutant of Rac, Rac1(Q61)) and FAD, along with varying concentrations of compound, and LO12, which emits light when it reacts with ROS. The reaction is initiated by addition of NADPH and SDS (an artificial activator of Nox2).
Target sequence in this assay (P04839 2-570): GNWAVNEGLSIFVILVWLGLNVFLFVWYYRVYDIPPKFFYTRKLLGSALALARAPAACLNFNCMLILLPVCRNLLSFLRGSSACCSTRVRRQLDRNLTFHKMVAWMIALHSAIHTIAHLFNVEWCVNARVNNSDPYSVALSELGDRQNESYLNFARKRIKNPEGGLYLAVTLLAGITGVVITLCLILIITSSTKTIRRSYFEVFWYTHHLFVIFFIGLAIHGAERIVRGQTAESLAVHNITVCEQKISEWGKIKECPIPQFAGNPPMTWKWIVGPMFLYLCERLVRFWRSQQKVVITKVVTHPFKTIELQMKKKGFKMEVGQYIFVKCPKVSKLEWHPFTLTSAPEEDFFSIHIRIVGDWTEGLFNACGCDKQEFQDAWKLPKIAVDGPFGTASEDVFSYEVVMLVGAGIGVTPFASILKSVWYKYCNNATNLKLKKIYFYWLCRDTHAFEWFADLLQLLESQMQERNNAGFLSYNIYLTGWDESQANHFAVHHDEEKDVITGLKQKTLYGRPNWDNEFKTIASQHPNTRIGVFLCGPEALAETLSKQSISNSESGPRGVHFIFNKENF

xanthine oxidase = xanthine oxidase (Homo sapiens (Human), UniProt P47989); experiment: Assay control: xanthine oxidase (XO) replaces Nox2 as the source of ROS, LO12 luminescence; type: biochemical; conditions: Table 2, xanthine oxidase control
Experimental: Assay controls. To rule out interference with either Nox2 or Nox4 luminescence assays, two approaches are used. In one, xanthine oxidase replaces the Nox2 enzymatic system as the source of ROS in the Nox2/LO12 assay. Xanthine is added to initiate the reaction and LO12 luminescence is recorded. In the other, exogenous H2O2 is supplied in place of the Nox4 expressing H2O2-generating cells and luminescence is recorded.

Nox5 = Nox5 (Homo sapiens (Human), UniProt Q96PH1); experiment: Nox5 inhibition; type: biochemical; conditions: Table 3
Nox1 = Nox1 (Homo sapiens (Human), UniProt Q9Y5S8); experiment: Nox1 inhibition; type: biochemical; conditions: Table 3
Nox2 [2] = target: T1, Nox2; experiment: Nox2 assay in human neutrophils (PMN), LO12 luminescence; type: cell-based
Experimental: (§1) Nox2 assay in human neutrophils: Human neutrophils were obtained from healthy volunteers (REF). LO12 luminescence was quantified as above. Nox4 assay using stably transfected HEK cell: HEK cells stably transfected with human Nox4 were incubated with varying concentrations of compound along with LO12.
Target sequence in this assay (P04839 whole entry, looked up): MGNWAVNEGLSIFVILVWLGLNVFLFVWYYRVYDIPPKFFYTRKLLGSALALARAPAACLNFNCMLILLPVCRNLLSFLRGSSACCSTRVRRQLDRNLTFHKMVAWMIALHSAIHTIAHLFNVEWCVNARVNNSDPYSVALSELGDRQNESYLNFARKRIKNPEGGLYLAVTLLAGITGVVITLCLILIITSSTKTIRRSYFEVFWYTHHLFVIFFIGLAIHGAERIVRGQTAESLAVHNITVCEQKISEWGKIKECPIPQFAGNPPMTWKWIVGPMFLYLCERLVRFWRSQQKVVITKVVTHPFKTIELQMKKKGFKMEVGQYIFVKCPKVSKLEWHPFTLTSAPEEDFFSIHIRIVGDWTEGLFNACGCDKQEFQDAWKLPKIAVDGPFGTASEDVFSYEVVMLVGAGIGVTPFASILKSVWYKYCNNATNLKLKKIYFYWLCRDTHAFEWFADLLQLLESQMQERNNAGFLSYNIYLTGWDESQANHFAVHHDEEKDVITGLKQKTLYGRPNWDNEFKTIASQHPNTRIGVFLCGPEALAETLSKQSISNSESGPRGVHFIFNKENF
Target sequence in this assay (P13498 whole entry partner, looked up): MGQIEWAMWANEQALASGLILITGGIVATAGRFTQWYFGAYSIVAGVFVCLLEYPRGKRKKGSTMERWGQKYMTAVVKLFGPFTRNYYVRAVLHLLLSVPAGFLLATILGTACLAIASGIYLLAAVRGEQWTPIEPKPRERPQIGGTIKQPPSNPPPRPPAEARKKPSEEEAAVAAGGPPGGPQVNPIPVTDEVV

Solubility = type: physicochemical
[3] = Stability in liver S9-fractions, dog; type: in vitro ADME; conditions: read-out: Stability in liver S9-fractions (t ½) Dog (converted)
[4] = Stability in liver S9-fractions, mouse; type: in vitro ADME; conditions: read-out: Stability in liver S9-fractions (t ½) Mouse (converted)
[5] = Stability in liver S9-fractions, human; type: in vitro ADME; conditions: read-out: Stability in liver S9-fractions (t ½) Human (converted)
human Nox4 = human Nox4 (Homo sapiens (Human), UniProt Q9NPH5); experiment: Nox4 assay using stably transfected HEK cells; type: cell-based
Experimental: as §1
Nox4 produces hydrogen peroxide rather than superoxide; under these conditions LO12 luminesces only after the addition of horseradish peroxidase to initiate the reaction.

[6] = Table 3, read-out: Nox2 (Cell Free)
[7] = Table 3, human neutrophils, read-out: Nox2 (PMN)

Sequence of xanthine oxidase (P47989 whole entry, species assumed): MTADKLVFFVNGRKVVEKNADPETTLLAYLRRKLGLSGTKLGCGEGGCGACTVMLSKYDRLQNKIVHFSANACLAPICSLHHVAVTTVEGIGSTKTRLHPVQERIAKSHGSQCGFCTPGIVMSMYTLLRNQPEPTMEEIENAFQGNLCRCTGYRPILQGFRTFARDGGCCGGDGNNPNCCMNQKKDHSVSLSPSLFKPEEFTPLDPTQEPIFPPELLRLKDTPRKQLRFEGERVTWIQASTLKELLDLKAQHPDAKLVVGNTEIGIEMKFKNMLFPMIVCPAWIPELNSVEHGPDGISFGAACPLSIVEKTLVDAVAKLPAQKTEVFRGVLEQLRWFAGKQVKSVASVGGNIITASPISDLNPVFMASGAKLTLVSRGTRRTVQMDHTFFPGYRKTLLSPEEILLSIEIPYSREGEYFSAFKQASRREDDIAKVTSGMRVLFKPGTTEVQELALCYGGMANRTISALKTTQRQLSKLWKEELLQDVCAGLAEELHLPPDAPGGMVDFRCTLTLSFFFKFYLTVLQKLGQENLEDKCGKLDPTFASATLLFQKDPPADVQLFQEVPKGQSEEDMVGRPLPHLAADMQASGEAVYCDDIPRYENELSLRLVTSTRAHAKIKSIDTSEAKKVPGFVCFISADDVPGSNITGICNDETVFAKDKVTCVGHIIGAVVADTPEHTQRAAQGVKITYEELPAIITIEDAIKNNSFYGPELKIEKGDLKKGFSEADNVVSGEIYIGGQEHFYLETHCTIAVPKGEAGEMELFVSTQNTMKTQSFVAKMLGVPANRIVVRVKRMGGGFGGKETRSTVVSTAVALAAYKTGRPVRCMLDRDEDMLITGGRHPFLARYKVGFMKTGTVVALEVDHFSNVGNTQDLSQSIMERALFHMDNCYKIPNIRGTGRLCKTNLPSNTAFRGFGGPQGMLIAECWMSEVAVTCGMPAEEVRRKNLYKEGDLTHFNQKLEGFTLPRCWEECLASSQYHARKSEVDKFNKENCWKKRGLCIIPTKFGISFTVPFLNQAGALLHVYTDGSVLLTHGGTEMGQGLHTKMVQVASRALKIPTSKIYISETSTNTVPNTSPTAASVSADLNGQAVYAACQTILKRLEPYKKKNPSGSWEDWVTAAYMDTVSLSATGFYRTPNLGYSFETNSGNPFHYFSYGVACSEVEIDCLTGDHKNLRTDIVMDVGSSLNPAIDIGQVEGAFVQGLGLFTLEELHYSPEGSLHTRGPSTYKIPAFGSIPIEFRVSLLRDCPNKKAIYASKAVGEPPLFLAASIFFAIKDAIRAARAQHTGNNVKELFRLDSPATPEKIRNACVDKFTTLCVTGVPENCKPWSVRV
Sequence of Nox5 (Q96PH1 whole entry, species assumed): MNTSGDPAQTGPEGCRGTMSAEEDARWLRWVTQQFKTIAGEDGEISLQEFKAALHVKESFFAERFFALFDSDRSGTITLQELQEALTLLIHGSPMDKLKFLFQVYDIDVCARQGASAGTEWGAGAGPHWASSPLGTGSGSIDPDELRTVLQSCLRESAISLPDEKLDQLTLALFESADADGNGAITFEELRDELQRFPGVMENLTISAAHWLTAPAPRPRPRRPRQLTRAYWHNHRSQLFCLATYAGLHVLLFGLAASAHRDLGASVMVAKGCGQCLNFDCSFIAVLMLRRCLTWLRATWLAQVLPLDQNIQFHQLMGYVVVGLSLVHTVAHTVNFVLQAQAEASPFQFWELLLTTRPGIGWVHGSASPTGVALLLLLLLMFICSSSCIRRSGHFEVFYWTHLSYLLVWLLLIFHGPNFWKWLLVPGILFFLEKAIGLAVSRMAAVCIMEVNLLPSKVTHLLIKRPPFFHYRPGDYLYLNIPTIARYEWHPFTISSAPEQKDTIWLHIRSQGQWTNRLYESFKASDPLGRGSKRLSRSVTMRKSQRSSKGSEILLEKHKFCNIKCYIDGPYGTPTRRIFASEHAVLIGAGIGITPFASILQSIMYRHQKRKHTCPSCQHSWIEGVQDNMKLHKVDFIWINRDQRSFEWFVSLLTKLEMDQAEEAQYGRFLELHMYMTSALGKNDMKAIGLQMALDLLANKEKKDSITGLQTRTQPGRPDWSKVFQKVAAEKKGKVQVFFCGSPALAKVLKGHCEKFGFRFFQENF
Sequence of Nox1 (Q9Y5S8 whole entry, species assumed): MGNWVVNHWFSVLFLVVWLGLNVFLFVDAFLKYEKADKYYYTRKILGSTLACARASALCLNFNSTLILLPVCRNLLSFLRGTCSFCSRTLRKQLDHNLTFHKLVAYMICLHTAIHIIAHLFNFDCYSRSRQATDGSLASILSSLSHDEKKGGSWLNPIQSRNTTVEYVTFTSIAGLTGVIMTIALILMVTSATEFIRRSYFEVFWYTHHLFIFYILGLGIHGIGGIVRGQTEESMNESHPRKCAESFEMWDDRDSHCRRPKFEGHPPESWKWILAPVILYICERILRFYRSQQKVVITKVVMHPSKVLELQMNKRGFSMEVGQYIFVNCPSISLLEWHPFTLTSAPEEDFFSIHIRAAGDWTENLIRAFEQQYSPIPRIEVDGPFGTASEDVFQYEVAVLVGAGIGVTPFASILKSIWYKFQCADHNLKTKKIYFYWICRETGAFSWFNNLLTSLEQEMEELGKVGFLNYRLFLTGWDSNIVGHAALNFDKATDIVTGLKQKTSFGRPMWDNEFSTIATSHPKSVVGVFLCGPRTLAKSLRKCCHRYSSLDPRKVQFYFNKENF
Sequence of Nox1 (P13498 2-195 partner, species assumed): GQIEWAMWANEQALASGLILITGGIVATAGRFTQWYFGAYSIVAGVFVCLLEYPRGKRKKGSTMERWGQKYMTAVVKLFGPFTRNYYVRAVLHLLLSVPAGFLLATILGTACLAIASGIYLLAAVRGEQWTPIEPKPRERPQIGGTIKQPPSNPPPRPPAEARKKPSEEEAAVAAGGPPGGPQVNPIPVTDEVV
Sequence of human Nox4 (Q9NPH5 whole entry): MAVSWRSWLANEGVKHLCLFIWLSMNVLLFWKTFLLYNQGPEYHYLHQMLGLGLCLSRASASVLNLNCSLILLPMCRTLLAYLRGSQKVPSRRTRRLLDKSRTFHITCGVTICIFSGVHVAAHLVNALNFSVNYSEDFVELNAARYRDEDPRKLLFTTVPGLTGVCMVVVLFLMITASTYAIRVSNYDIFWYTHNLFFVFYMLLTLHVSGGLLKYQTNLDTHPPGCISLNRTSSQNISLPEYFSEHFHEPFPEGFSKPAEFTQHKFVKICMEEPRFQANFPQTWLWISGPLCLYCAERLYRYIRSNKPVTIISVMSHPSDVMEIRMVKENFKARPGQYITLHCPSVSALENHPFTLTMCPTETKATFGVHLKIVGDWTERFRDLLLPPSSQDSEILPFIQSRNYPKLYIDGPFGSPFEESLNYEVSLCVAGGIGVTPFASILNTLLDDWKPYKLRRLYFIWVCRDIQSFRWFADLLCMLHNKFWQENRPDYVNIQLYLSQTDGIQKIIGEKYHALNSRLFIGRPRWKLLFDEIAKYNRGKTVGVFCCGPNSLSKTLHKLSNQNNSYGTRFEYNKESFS
Sequence of human Nox4 (P13498 2-195 partner): as the sequence (P13498 2-195 partner, species assumed) above

Compound: COc1ccc(N2CCN(C(=O)c3cc4cc(OC)c(OC)cc4[nH]3)CC2)cc1 [TG6-181]
IC50 (Nox2 [1]; Table 2, read-out: IC50 Nox2): 800 nM
IC50 (xanthine oxidase): > 20 µM

Compound: COc1ccc(N2CCN(C(=O)c3cnc4c(F)cccc4c3O)CC2)cc1 [TG6-192]
IC50 Nox2 (Nox2 [1]; Table 2): Not active

Compound: COc1ccc(N2CCN(C(=O)c3cc4cc(OC)ccc4[nH]3)CC2)cc1 [TG6-179-2]
IC50 (Nox2 [1]; Table 2, read-out: IC50 Nox2): 500 nM

Compound: O=C(c1cc2cc(O)ccc2[nH]1)N1CCN(c2ccc(OC(F)(F)F)cc2)CC1 [TG6-205-2]
IC50 (Nox2 [1]; Table 2, read-out: IC50 Nox2): 1500 nM
IC50 (xanthine oxidase): 0.2 µM

Compound: COc1ccc(N2CCN(C(=O)c3cc4cc(C(C)=O)ccc4[nH]3)CC2)cc1F [TG6-252]
IC50 (Nox2 [1]; Table 2, read-out: IC50 Nox2): 3000 nM

Compound: O=C(c1nc2cc(F)ccc2[nH]1)N1CCN(c2ccc(OC(F)(F)F)cc2)CC1 [TG6-206]
IC50 Nox2 (Nox2 [1]; Table 2): Not active

Compound: CC(C)Oc1ccc(N2CCN(C(=O)c3nc4cc(C(N)=O)ccc4[nH]3)CC2)cc1 [TG6-251-1]
IC50 (Nox2 [1]; Table 2, read-out: IC50 Nox2): 1000 nM
IC50 (xanthine oxidase): ≥ 20 µM

Compound: COc1ccc(N2CCN(C(=O)c3cc4cc(C(N)=O)ccc4[nH]3)CC2)cc1F [TG6-254-1]
IC50 (Nox2 [1]; Table 2, read-out: IC50 Nox2): 2000 nM

Compound: COc1ccc(N2CCN(C(=O)c3nc4cc(OC)ccc4[nH]3)CC2)cc1 [TG6-228]
IC50 (Nox2 [1]; Table 2, read-out: IC50 Nox2): 1000 nM
IC50 (xanthine oxidase): > 20 µM

Compound: COc1ccc(N2CCN(C(=O)c3cc4cc(Br)ccc4[nH]3)CC2)cc1 [TG6-203]
inhibition at 0.3 µM (Nox2 [1]): 30%

Compound: CNC(=O)c1ccc2[nH]c(C(=O)N3CCN(c4ccc(OC)c(F)c4)CC3)cc2c1 [TG6-254-2]
IC50 (Nox2 [1]; Table 2, read-out: IC50 Nox2): 10000 nM

Compound: COc1ccc(N2CCN(C(=O)c3cc4cc(C(=O)O)ccc4[nH]3)CC2)cc1 [TG6-236]
IC50 (Nox2 [1]; Table 2, read-out: IC50 Nox2): 500 nM
IC50 (xanthine oxidase): > 20 µM

Compound: COC(=O)C1CN(c2ccc(OC)cc2)CCN1C(=O)c1nc2cc(F)ccc2[nH]1 (stereo not drawn) [TG6-235]
IC50 (Nox2 [1]; Table 2, read-out: IC50 Nox2): 1000 nM
IC50 (xanthine oxidase): > 20 µM

Compound: COc1ccc(N2CCN(C(=O)c3cc4ccccc4[nH]3)CC2)cc1 [TG6-225]
half-life [3]: 150 min
half-life [4]: 300 min
IC50 (Nox2 [1]; Table 2, read-out: IC50 Nox2): 500 nM
IC50 (Nox2 [1]; [6]): 400 nM
IC50 (Nox1): 500 nM
half-life [5]: 252 min
IC50 (Nox2 [2]; [7]): 200 nM
IC50 (xanthine oxidase): > 20 µM
solubility (Solubility): < 25 µM

Compound: COc1ccc(N2CCN(C(=O)c3cc4cc(S(C)(=O)=O)ccc4[nH]3)CC2)cc1 [TG6-218]
inhibition at 6 µM (Nox2 [1]): 40%

Compound: COC(=O)c1ccc2[nH]c(C(=O)N3CCN(c4ccc(OC)cc4)CC3)cc2c1 [TG6-222]
IC50 (Nox2 [1]; Table 2, read-out: IC50 Nox2): 300 nM
IC50 (xanthine oxidase): > 20 µM

Compound: CCc1ccc2[nH]c(C(=O)N3CCN(c4ccc(OC)cc4)CC3)cc2c1 [TG6-202]
IC50 Nox2 (Nox2 [1]; Table 2): Not active
IC50 (xanthine oxidase): > 20 µM

Compound: CNC(=O)c1ccc2[nH]c(C(=O)N3CCN(c4ccc(OC)cc4)CC3)cc2c1 [TG6-223]
IC50 (Nox2 [1]; Table 2, read-out: IC50 Nox2): 500 nM
IC50 (xanthine oxidase): > 20 µM

Compound: COc1ccc(N2CCN(C(=O)c3cnc4cc(C(C)=O)ccc4c3O)CC2)cc1 [TG6-239]
IC50 (Nox2 [1]; Table 2, read-out: IC50 Nox2): 1000 nM
IC50 (xanthine oxidase): ≥ 20 µM

Compound: COc1ccc(N2CCN(C(=O)c3cc4cc(O)ccc4[nH]3)CC2)cc1 [TG6-199]
IC50 (Nox2 [1]; Table 2, read-out: IC50 Nox2): 500 nM
IC50 (xanthine oxidase): < 0.1 µM

Compound: COc1ccc(N2CCN(C(=O)c3cc4cc(C(C)=O)ccc4[nH]3)CC2)cc1 [TG6-161, 1-(2-(4-(4-methoxyphenyl)piperazine-1-carbonyl)-1H-indol-5-yl)ethanone]
half-life [3]: 120 min
selectivity for Nox2 compared with Nox4 (human Nox4): ≥ 100 fold
IC50 (human Nox4; using two different assays): 20 to 30 µM
half-life [4]: 180 min
IC50 (Nox2 [1]; Table 2, read-out: IC50 Nox2): 400 nM
IC50 (Nox2 [1]; [6]): 300 nM
IC50 (Nox2 [1]; read-out: IC50, Nox2 cell free system): 200 to 300 nM
IC50 (Nox1): 600 nM
half-life [5]: 45 min
IC50 (Nox2 [2]; [7]): 200 nM
IC50 (Nox2 [2]; read-out: IC50, ROS production in human neutrophils): 200 to 300 nM
IC50 (xanthine oxidase): > 20 µM
solubility (Solubility): < 25 µM

Compound: COc1ccc(N2CCN(C(=O)[C@H]3Cc4ccccc4N3)CC2)cc1 [TG6-214]
inhibition at 2.5 µM (Nox2 [1]): 40%

Compound: CCOc1ccc(N2CCN(C(=O)c3cc4cc(C(C)=O)ccc4[nH]3)CC2)cc1 [TG6-238]
IC50 (Nox2 [1]; Table 2, read-out: IC50 Nox2): 800 nM
IC50 (xanthine oxidase): ≥ 20 µM

Compound: COc1ccc(N2CCN(C(=O)c3cc4cc(C(N)=O)ccc4[nH]3)CC2)cc1 [TG6-227]
half-life [3]: 270 min
half-life [4]: 360 min
IC50 (Nox2 [1]; Table 2, read-out: IC50 Nox2): 700 nM
IC50 (Nox2 [1]; [6]): 600 nM
IC50 (Nox1): 300 nM
half-life [5]: 120 min
IC50 (Nox2 [2]; [7]): 100 nM
IC50 (xanthine oxidase): > 20 µM
solubility (Solubility): 190 µM (≈ 71.9 µg/mL)

Compound: CC(=O)c1ccc2[nH]c(C(=O)N3CCN(c4ccc(OC(C)C)cc4)CC3)cc2c1 [TG6-251-2]
IC50 (Nox2 [1]; Table 2, read-out: IC50 Nox2): 1000 nM

Compound: O=C(c1cc2cc([N+](=O)[O-])ccc2[nH]1)N1CCN(c2ccc(OC(F)(F)F)cc2)CC1 [TG6-209]
inhibition at 2 µM (Nox2 [1]): 25%

Now from value to compound:

inhibition at 2 µM (Nox2 [1]): 60%
Compound: COc1ccc(N2CCN(C(=O)c3[nH]c4ccc(OC)cc4c3NC(C)=O)CC2)cc1 [TG6-208]

IC50 (Nox5): 800 nM
IC50 (Nox2 [1]; [6]): 800 nM
IC50 (Nox1): 400 nM
IC50 (Nox2 [2]; [7]): 700 nM
solubility (Solubility): 250 µM (≈ 120 µg/mL)
Compound: CCN1CCN(Cc2c(C(=O)N3CCN(c4ccc(OC)cc4)CC3)[nH]c3ccc(F)cc23)CC1 [TG7-33, (3-((4-ethylpiperazin-1-yl)methyl)-5-fluoro-1H-indol-2-yl)(4-(4-methoxyphenyl)piperazin-1-yl)methanone]

half-life [3]: 240 min
half-life [4]: 300 min
IC50 (Nox2 [1]; Table 2, read-out: IC50 Nox2): 700 nM
IC50 (Nox2 [1]; [6]): 1000 nM
IC50 (Nox1): 600 nM
half-life [5]: 60 min
IC50 (Nox2 [2]; [7]): 400 nM
IC50 (xanthine oxidase): > 20 µM
solubility (Solubility): < 25 µM
Compound: COc1ccc(N2CCN(C(=O)c3nc4cc(F)ccc4[nH]3)CC2)cc1 [TG6-179-3, (5-fluoro-1H-benzo[d]imidazol-2-yl)(4-(4-methoxyphenyl)piperazin-1-yl)methanone]

IC50 (Nox2 [1]; Table 2, read-out: IC50 Nox2): 700 nM
Compound: COc1ccc(N2CCN(C(=O)c3[nH]c4ccc(F)cc4c3C)CC2)cc1 [TG6-200]

IC50 (Nox2 [1]; Table 2, read-out: IC50 Nox2): 1000 nM
Compound: COc1ccc(N2CCN(C(=O)c3[nH]c4ccc(C(C)=O)cc4c3C)CC2)cc1 [TG6-190]

IC50 (Nox5): 600 nM
IC50 (Nox2 [1]; [6]): 700 nM
IC50 (Nox1): 500 nM
IC50 (Nox2 [2]; [7]): 200 nM
solubility (Solubility): 250 µM (≈ 120 µg/mL)
Compound: COc1ccc(N2CCN(C(=O)c3[nH]c4ccc(F)cc4c3CNC3CCN(C)CC3)CC2)cc1 [TG7-32, (5-fluoro-3-(((1-methylpiperidin-4-yl)amino)methyl)-1H-indol-2-yl)(4-(4-methoxyphenyl)piperazin-1-yl)methanone]

IC50 (Nox5): 1500 nM
IC50 (Nox2 [1]; [6]): 800 nM
IC50 (Nox1): 600 nM
IC50 (Nox2 [2]; [7]): 200 nM
solubility (Solubility): 276 µM
Compound: COc1ccc(N2CCN(C(=O)c3[nH]c4ccc(F)cc4c3CN3CCOCC3)CC2)cc1.Cl [TG7-31, (5-fluoro-3-(morpholinomethyl)-1H-indol-2-yl)(4-(4-methoxyphenyl)piperazin-1-yl)methanone]

IC50 (Nox2 [1]; Table 2, read-out: IC50 Nox2): 5000 nM
Compound: COc1ccc(N2CCN(C(=O)c3cc4cc(F)ccc4[nH]3)CC2)cc1 [TG6-179-1]

IC50 (Nox2 [1]; [6]): 300 nM
IC50 (Nox1): 900 nM
IC50 (Nox2 [2]; [7]): 200 nM
solubility (Solubility): 150 µM (≈ 72.2 µg/mL)
Compound: CCN(CC)CCNCc1c(C(=O)N2CCN(c3ccc(OC)cc3)CC2)[nH]c2ccc(F)cc12 [TG6-298, (3-(((2-(diethylamino)ethyl)amino)methyl)-5-fluoro-1H-indol-2-yl)(4-(4-methoxyphenyl)piperazin-1-yl)methanone]

IC50 (Nox2 [1]; Table 2, read-out: IC50 Nox2): 800 nM
Compound: CCOc1ccc(N2CCN(C(=O)c3nc4cc(F)ccc4[nH]3)CC2)cc1 [TG6-242]

IC50 (Nox5): 600 nM
IC50 (Nox2 [1]; [6]): 700 nM
IC50 (Nox1): 600 nM
IC50 (Nox2 [2]; [7]): 500 nM
solubility (Solubility): 270 µM
Compound: CCN(CC)Cc1c(C(=O)N2CCN(c3ccc(OC)cc3)CC2)[nH]c2ccc(F)cc12.Cl [TG7-34, (3-((diethylamino)methyl)-5-fluoro-1H-indol-2-yl)(4-(4-methoxyphenyl)piperazin-1-yl)methanone]

IC50 (Nox2 [1]; Table 2, read-out: IC50 Nox2): 1500 nM
Compound: COc1ccc(N2CCN(C(=O)c3cnc4ccc(F)cc4c3O)CC2)cc1 [TG6-191]

Source: US9428478B2, “Piperazine derivatives, compositions, and uses related thereto” (Emory University, priority 2011, dated 2016)
